Data published in patent publication US4267175A, “Benzamide derivatives” (Beecham Group Limited, priority 1976, dated 1981).

Legend:
Type in all cases: in vivo
[1] = test system: stereotype behaviour induced by apomorphine (dopamine receptor blockade in the central nervous system); assay: Inhibition of stereotype behaviour induced by apomorphine; details: rat; for Inhibition of Stereotype Behaviour, active dose: s.c., apomorphine induced, active doses (mg/kg)
Description: (§1) 1. Compounds prepared in the Examples were tested for the following pharmacological activities in the rat:
(c) Inhibition of stereotype behaviour induced by apomorphine
This is indicative of dopamine receptor blockade in the central nervous system.

intragastric pressure [2] = assay: Increase in intragastric pressure in the rat; details: s.c., active doses (mg/kg)
Description: as §1
(a) Increase in intragastric pressure
Intragastric pressure changes were recorded from previously starved conscious but restrained rats using a saline filled catheter inserted into the lumen of the stomach via a permanent gastric fistula. The catheter was connected to a physiological pressure transducer and pressure changes recorded on a hot wire pen recorder. In each animal a pre dose period of 40 minutes was allowed to obtain a measure of spontaneous activity. An index of activity was obtained by measuring the average height of pressure waves during 10 minute periods. Values for 4 such periods were obtained during assessment of spontaneous activity and for the 40 minute period after the subcutaneous administration of the Compounds. Student "t" test was applied to the difference in average values obtained for spontaneous and post Compound activity.

intragastric pressure [3] = assay: Increase in intragastric pressure in the rat; details: p.o., active doses (mg/kg)
[4] = test system: emetic response to apomorphine; assay: Anti-emetic activity in the dog (abolition of emetic response to apomorphine); details: for ED50: Canis lupus familiaris, sc, apomorphine emesis
Description: 2. Anti- emetic activity in the dog
(a) Compounds were tested in the dog for their ability to abolish the emetic response to apomorphine.

[5] = test system: apomorphine induced delay in gastric emptying; assay: Increase in gastric emptying - reversal of apomorphine induced delay in gastric emptying of a test meal; details: rat, s.c., apomorphine HCl 5 mg/kg s.c., active doses (mg/kg); for Increase in Gastric Emptying, active dose (slightly active): slightly active at this dose
Description: as §1
(b) Increase in gastric emptying-reversal of apomorphine induced delay in gastric emptying of a test meal.
Rats equipped with chronic gastric fistual were used and it was through this that 5 ml of a test meal (5 ml phosphate buffer at pH 9) was administered and recovered. The % recovery of the standard meal after remaining in the stomach for 10 minutes was taken as an index of gastric emptying. Delay in gastric emptying was induced by the administration of Apomorphine HCl (5 mg/kg subcutaneously) and was given 15 minutes prior to the subcutaneous administration of the Compound. The % recoveries of the test meal was determined at 15-25 and 45-55 minutes post dosing with the Compound and compared with vehicle only dosed animals set up simultaneously. Six animals were used for each group.

[6] = test system: catapresan induced fighting behaviour; assay: Catapresan Test (catapresan induced fighting behaviour); details: Mus musculus, po; mice, orally; catapresan 20-25 mg/kg intravenously; read-out: ED50, inhibition of catapresan induced fighting behaviour
Description: Catapresan (20-25 mg/kg intravenously) was used to induce fighting behaviour in mice. The fighting was assessed as the biting of a dead mouse placed in the cage and was given a score of 1 or 2 depending on intensity. Compound effect was measured as percentage inhibition of fighting compared to that with control animals and the dose reducing fighting by 50% was determined graphically.

[7] = test system: amphetamine induced stereotypy; assay: Antagonism of Amphetamine Stereotypy; details: rats, 10 mg/kg subcutaneously; d-amphetamine 10 mg/kg s.c.
Description: Antagonism of Amphetamine Stereotypy
Based on method of Jansen, Niemegeers and Schellekens (1966), Arzneimittel Forsch., 15, pp. 104-117. Rats were given compound 15 minutes prior to subcutaneous injection of d-amphetamine (10 mg/kg). 30 minutes and 1 hour after the amphetamine, the degree of stereotyped behaviour was scored according to the method of Costal, Naylor and Olley (1972). Europ. J. Pharmacol., 18, pp. 83-94. The percentage inhibition of stereotypy at the respective time interval was calculated.

COc1cc(N)c(Cl)cc1C(=O)NN1CCN(C(C)C)CC1 [Example 16, 4-amino-5-chloro-2-methoxy-N-[4-(2-propyl)-1-piperazinyl]-benzamide]
Inhibition of Stereotype Behaviour ([1]; at 50 mg s.c.): Inactive
Increase in Intra-gastric Pressure, active dose (intragastric pressure [2]): 5 mg/kg

COc1cc(N)c(Cl)cc1C(=O)NN1CCN(C)CC1 [Example 4, 4-amino-5-chloro-2-methoxy-N-[4-methyl-1-piperazinyl]benzamide]
Increase in Intra-gastric Pressure, active dose (intragastric pressure [3]): 10 mg/kg

COc1cc(N)c(Cl)cc1C(=O)NN1CCN(Cc2cccs2)CC1 [Example 11, 4-Amino-5-chloro-2-methoxy-N-[4-(2-thenyl)-1-piperazinyl]-benzamide]
Inhibition of Stereotype Behaviour ([1]; at 50 mg s.c.): Inactive
Increase in Intra-gastric Pressure, active dose (slightly active) (intragastric pressure [2]; slightly active at this dose): 50 mg

CCCCCN1CCN(NC(=O)c2cc(Cl)c(N)cc2OC)CC1 [Example 13, 4-amino-5-chloro-2-methoxy-N-[4-(1-pentyl)-1-piperazinyl]-benzamide]
Inhibition of Stereotype Behaviour, active dose [1]: 50 mg
ED50 [4]: 0.36 mg/kg

COc1ccc(CN2CCN(NC(=O)c3cc(Cl)c(N)cc3OC)CC2)cc1 [Example 8, 4-Amino-5-chloro-2-methoxy-N-[4-(4-methoxybenzyl)-1-piperazinyl]benzamide]
Inhibition of Stereotype Behaviour, active dose [1]: 3 mg

CCCC[N+]1(C)CCN(NC(=O)c2cc(Cl)c(N)cc2OC)CC1.[Br-] [Example 19, 4-Amino-5-chloro-2-methoxy-N-[4-n-butyl-1-piperazinyl]-benzamide methobromide]
Inhibition of Stereotype Behaviour ([1]; at 50 mg s.c.): Inactive
Increase in Intra-gastric Pressure, active dose (intragastric pressure [2]): 1 mg/kg
Increase in Gastric Emptying, active dose (slightly active) [5]: 50 mg

COc1cc(N)c(Cl)cc1C(=O)NN1CCN(Cc2ccsc2)CC1 [Example 12, 4-Amino-5-chloro-2-methoxy-N-[4-(3-thenyl)-1-piperazinyl]-benzamide]
Inhibition of Stereotype Behaviour, active dose [1]: 50 mg

COc1cc(N)c(Cl)cc1C(=O)NN1CCN(Cc2ccc(N(C)C)cc2)CC1 [Example 23, 4-Amino-5-chloro-2-methoxy-N-[4-(4-dimethylaminobenzyl)-1-piperazinyl]benzamide]
ED50 [6]: 60 mg/kg
Inhibition of amphetamine induced stereotypy [7]: 25%

COc1cc(N)c(Cl)cc1C(=O)NN1CCN(Cc2ccccc2)CC1 [Example 1, 4-Amino-5-chloro-2-methoxy-N-[4-benzyl-1-piperazinyl]benzamide]
Inhibition of Stereotype Behaviour, active dose [1]: 0.625 mg
ED50 [4]: 0.0125 mg/kg

CCN1CCN(NC(=O)c2cc(Cl)c(N)cc2OC)CC1 [Example 5, 4-Amino-5-chloro-2-methoxy-N-[4-ethyl-1-piperazinyl]benzamide]
Inhibition of Stereotype Behaviour ([1]; at 50 mg s.c.): Inactive
Increase in Intra-gastric Pressure, active dose (intragastric pressure [2]): 50 mg/kg

COc1cc(N)c(Cl)cc1C(=O)NN1CCN(Cc2ccc(Cl)cc2)CC1 [Example 7, 4-Amino-5-chloro-2-methoxy-N-{[4-(4-chlorobenzyl)]1-piperazinyl}benzamide]
Inhibition of Stereotype Behaviour, active dose [1]: 50 mg

COc1cc(N)c(Cl)cc1C(=O)NN1CCN(Cc2ccc(F)cc2)CC1 [Example 14, 4-amino-5-chloro-2-methoxy-N-[4-(4-fluorobenzyl)-1-piperazinyl]-benzamide]
Inhibition of Stereotype Behaviour, active dose [1]: 50 mg

COc1cc(N)c(Cl)cc1C(=O)NN1CCN(CCC(C)C)CC1 [Example 20, 4-Amino-5-chloro-2-methoxy-N-[4-(3-methylbutyl)-1-piperazinyl]-benzamide]
ED50 [4]: 0.35 mg/kg

COc1cc(N)c(Cl)cc1C(=O)NN1CCCN(C)CC1 [Example 9, 4-Amino-5-chloro-2-methoxy-N-[4-methyl-1-(1,4-diazacycloheptyl)]benzamide]
Inhibition of Stereotype Behaviour ([1]; at 25 mg s.c.): Inactive
Increase in Intra-gastric Pressure, active dose (intragastric pressure [2]): 10 mg/kg
Anti-emetic activity ([4]; at 2 mg/kg s.c., inhibition of no. of vomits only): slight activity

COc1cc(N)c(Br)cc1C(=O)NN1CCN(C)CC1 [Example 21, 4-Amino-5-bromo-2-methoxy-N-[4-methyl-1-piperazinyl]-benzamide hemihydrate]
Inhibition of Stereotype Behaviour ([1]; at 50 mg s.c.): Inactive
Increase in Intra-gastric Pressure, active dose (intragastric pressure [2]): 5 mg/kg

COc1cc(N)c(Cl)cc1C(=O)NN1CC[N+](C)(Cc2ccccc2)CC1.[Br-] [Example 18, 4-Amino-5-chloro-2-methoxy-N-[4-methyl-1-piperazinyl]-benzamide benzobromide]
Inhibition of Stereotype Behaviour ([1]; at 50 mg s.c.): Inactive
Increase in Intra-gastric Pressure, active dose (intragastric pressure [2]): 25 mg/kg
Increase in Gastric Emptying, active dose [5]: 25 mg

COc1cc(N)c(Cl)cc1C(=O)NN1CCN(C)CC1 [Example 2, 4-Amino-5-chloro-2-methoxy-N-[4-methyl-1-piperazinyl]benzamide]
Inhibition of Stereotype Behaviour ([1]; at 100 mg s.c.): Inactive
Increase in Intra-gastric Pressure, active dose (intragastric pressure [2]): 1 mg/kg
ED50 [4]: 8 mg/kg
Increase in Intra-gastric Pressure, active dose (intragastric pressure [3]): 20 mg/kg

CCCN1CCN(NC(=O)c2cc(Cl)c(N)cc2OC)CC1 [Example 15, 4-amino-5-chloro-2-methoxy-N-[4-(1-propyl)-1-piperazinyl]-benzamide]
Inhibition of Stereotype Behaviour ([1]; at 50 mg s.c.): Inactive
Increase in Intra-gastric Pressure, active dose (intragastric pressure [2]): 10 mg/kg
Increase in Gastric Emptying, active dose (slightly active) [5]: 50 mg

CCCCN1CCN(NC(=O)c2cc(Cl)c(N)cc2OC)CC1 [Example 6, 4-Amino-5-chloro-2-methoxy-N-[4-n-butyl-1-piperazinyl]benzamide]
Inhibition of Stereotype Behaviour ([1]; at 25 mg s.c.): Inactive
Increase in Intra-gastric Pressure, active dose (intragastric pressure [2]): 5 mg/kg
ED50 [4]: 1 mg/kg

COc1cc(N)c(Cl)cc1C(=O)NN1CC[N+](C)(C)CC1.[Br-] [Example 17, 4-Amino-5-chloro-2-methoxy-N-[4-methyl-1-piperazinyl]-benzamide methobromide]
Inhibition of Stereotype Behaviour ([1]; at 50 mg s.c.): Inactive
Increase in Intra-gastric Pressure, active dose (intragastric pressure [2]): 0.5 mg/kg

CCCCN1CCCN(NC(=O)c2cc(Cl)c(N)cc2OC)CC1 [Example 22, 4-Amino-5-chloro-2-methoxy-N-[4-n-butyl-1-(1-4-diazocycloheptyl)]benzamide]
Inhibition of apomorphine induced emesis ([4]; at 5 mg/kg subcutaneously): completely inhibited
